Where a name gives a salt, the structure may show the parent alone.
Columns and labels:
[1] = Solubility of RPL554 salts in saline solutions, water and aqueous buffer solutions at 25° C. (HPLC); format: physicochemical; details: 24 hours; for Solubility as RPL554 (mg/ml) in Water: deionised water
Method: The behaviour of salts of RPL554 were examined under the following conditions: • Phosphate buffered to pH 3.5 in saline, 0.9% w/w at 25° C. • Acetate buffered to pH 4.5 in saline, 0.9% w/w at 25° C. • Citro-Phosphate buffered to pH 4.5 in saline, 0.9% w/w at 25° C. • Phosphate buffered to pH 6.5 in saline, 0.9% w/w at 25° C. • Saline, 0.7, 0.9 and 1.1% w/w at 25° C. • Deionised water at 25° C.
RPL554 salts and RPL554, ca 50 mg, were suspended in the various aqueous media, 1 ml, with agitation at the specified temperatures for 24 hours. The solids were isolated and dried in vacuo at 45° C. The retained filtrates were examined by HPLC.
Additional RPL554 methane sulfonate salt, ca 50 mg, was charged to the water mixtures at 25° C. and 37.5° C. in order to afford a suspension. In all other cases, suspensions were obtained.
The solubility of the RPL554 was determined by HPLC using a single point calibration and is expressed as RPL554 and not as the salt and are detailed in Table 6 and Table 7 for the various conditions utilised.

[2] = Intrinsic dissolution of compressed tablet, pH 7.0, 37° C. (Sirius inForm); format: physicochemical; details: for mass dissolved: initial peak; for Mass of salt (μg) dissolved after 2 hours, Average / Mass of salt (μg) dissolved after 2 hours, Test 1 / Mass of salt (μg) dissolved after 2 hours, Test 2: pH 7.0, 0.15 M NaCl, 37° C.
Method: The dissolution assay (pH-dependent sample dissolution) was investigated using the Sirius inForm.
Dissolution of a compressed tablet of the compound was monitored in a pH 7.0 aqueous dissolution experiment (0.15 M NaCl) at 37° C. using UV-absorption spectroscopy in 2 hour experiments. A tablet with a diameter of 3 mm, requiring approximate weights of 10 mg was compressed under a weight of 100 kg load force. Only one face of the tablet was exposed to the dissolution medium, which contained a 0.01 M acetate/phosphate buffer system to minimise perturbation of the experimental pH from dissolution of the drug.
Stirring of the solution was continuous and at a constant rate of 100 rpm. The absorption data was converted to absolute sample weights using previously determined, pH-dependent, molar extinction coefficients. An appropriate wavelength range was chosen to ensure that spectroscopic data with an absorption value of <1.3 was analysed, avoiding erroneous dissolution results due to saturation of the UV light source.

[3] = Primary particle size analysis by laser light diffraction (Mastersizer 2000); format: physicochemical; details: micronised, mean n=3
Method: A Mastersizer 2000 fitted with a Scirocco 2000 dry powder dispersion unit (Malvern Instruments Ltd, UK) was used to analyse the primary particle size of the micronised RPL554 and salt variants. The salts (50 mg) were automatically sampled via a vibrating feed control at a feeder rate of 60% and dispersed in compressed air at a pressure of 3 bar.

[4] = Solubility of RPL554 and salts in pMDI propellant systems; format: physicochemical
Method: Quantitative assessment of the solubility of RPL554 and salt variants in the propellant systems of selected pMDI formulations (three replicates of each formulation) was performed. pMDIs were directly coupled to an adaptor fitted with a 0.20 μm filter unit connected, in series to a 21 G needle, which was inserted via a rubber septum, into a cooled multi-dose glass vial. A 19 G filter needle was inserted through the septum to aid evaporation of propellant from the vial. Prior to the filtration process the vial was cooled in a mixture of dry ice and acetone to ensure that the pressure within the vial was reduced in order to facilitate collection of the output from the pMDI. Ten consecutive actuations of the pMDI were fired through the filter and collected in the vial. Between actuations the canister was shaken for approximately 10 seconds. The pMDI unit was weighed before and after the filtering procedure. The filtrate was stored at room temperature and allowed to evaporate to dryness.
Samples were recovered by carefully rinsing the inside of the vials with 1 mL of recovery solution before transfer to HPLC vials for analysis. The estimated % of RPL554 solubilised within the canister was calculated from the starting mass of RPL554 within the canisters, which in turn was calculated using the theoretical molecular weight values of the RPL554 free base and salt variants shown in Table 13. The theoretical molecular weight estimates of the salts were provided by Verona.

[5] = RPL554 content and content uniformity of 1% w/w lactose powder blends; format: physicochemical; details: for Measured Blend Content (% Theoretical): 1% w/w RPL554 variant: lactose powder blend, expressed as RPL554 base; for **Adjusted RPL554 Content per capsule: per 20 mg capsule of 1% w/w lactose blend, adjusted for measured blend content (% theoretical), as RPL554 base
Method: Batches (approximately 5 g) of 1% w/w RPL554 free base or salt variants: lactose blends were prepared. In brief, the RPL554 free base or salt plus a small quantity of lactose was passed through a 38 μm sieve. The sieved material plus the remaining lactose was mixed in a glass mortar prior to transfer to a stainless steel screw cap jar and further mixing (10 minutes at 46 rpm) conducted using a Turbula blender. The composition of the dry powder blend was 0.05 g API and 4.95 g lactose.
In order to determine the content uniformity of the blends, aliquots (approx. 20 mg) of powder were sampled from each blend, accurately weighed, and diluted to volume in 10 mL volumetric flasks with diluent. The flasks were sonicated for 3 minutes before samples were transferred to HPLC vials for analysis.

[6] = Aerosol performance of DPI formulations (Cyclohaler, NGI); format: physicochemical; details: for †Measured Mass of 1% w/w Blend Delivered per capsule / ††RPL554 Emitted (μg) per capsule (B): Cyclohaler; for †Measured Mass of 1% w/w Blend Delivered per capsule: 5 capsules containing 20 mg powder blend, mass from weight change of capsule-loaded device; for ††RPL554 Emitted (μg) per capsule (B): NGI, mass determined from HPLC analysis of recovered samples; for ††RPL554 Emitted (μg) per capsule (B) / Calculated RPL554 Content (μg) per capsule (A): as RPL554 base; for Calculated RPL554 Content (μg) per capsule (A): calculated from delivered blend mass and measured blend content
Method: Capsules were hand filled with 20 mg of the 1% w/w RPL554 free base or salt variants: lactose blends, i.e. 200 μg salt per capsule, the fill weight of each capsule was recorded. Due to differences in the molecular weights of the RPL554 salt forms, the amount of RPL554 emitted per actuation varied as a function of molecular weight. The formulations were prepared with no adjustment for differences in molecular weight of the salts.
The powders were delivered via the Cyclohaler® DPI (PCH Pharmachemie, BV, The Netherlands). The Cyclohaler® DPI is a low resistance device and was operated at a flow rate of 90 L/min for 2.7 seconds. The cut off diameters for the NGI collection stages were calculated for the 90 L/min flow rate using the NGI User Guide (MSP Corporation, 2008).
The ED, FPD and FPF were determined from inertial impaction tests performed following the deposition of 5 capsules of each formulation into the NGI. For each capsule tested the combined weight of the Cyclohaler® and capsule was determined before and after operation to check that the dose had been delivered. The NGI was fitted with a pre-separator for these determinations. The central cup of the pre-separator was filled with 15 mL of diluent. Following deposition, the solution was recovered in a 20 mL volumetric flask and made up to volume with diluent. RPL554 was quantitatively recovered from the device, induction port and each of the NGI collection stages with 10 mL of diluent.
The volume of diluent used for each sample was selected to ensure RPL554 concentrations were above the limit of quantitation.

[7] = Physico-chemical characteristics of salt candidates: solubility in water, pH of aqueous suspension/solution, form post water maturation
Method: The physico-chemical characteristics of the salt candidates were determined.

[8] = listed as hydrobromide salt, hydrobromide
[9] = in HFA 134 with Ethanol/Tween, hydrobromide

## COc1cc2c(cc1OC)-c1c/c(=N\c3c(C)cc(C)cc3C)n(CCNC(N)=O)c(=O)n1CC2 [Ethanesulfonate, RPL554 ethanesulfonate]
[1]
  Solubility as RPL554 (mg/ml) in 0.7 w/w % Saline: 1.62 mg/mL
  Solubility as RPL554 (mg/ml) in 0.9 w/w % Saline: 0.79 mg/mL
  Solubility as RPL554 (mg/ml) in 1.1 w/w % Saline: 1.27 mg/mL
  Solubility as RPL554 (mg/ml) in Water: 21.37 mg/mL
[2]; 2 hour experiments
  dissolution compared with free base / other salts: higher dissolution than the rest of the salts
[2]; at 5.7 min
  mass dissolved: 600 µg
[2]; at 13 min
  mass dissolved: 700 µg
[2]; listed as ethanesulfonate salt
  Mass of salt (μg) dissolved after 2 hours, Average: 355 µg
  Mass of salt (μg) dissolved after 2 hours, Test 1: 300 µg
  Mass of salt (μg) dissolved after 2 hours, Test 2: 410 µg
[3]
  D (0.1) (μm): 0.56 μm
  D (0.5) (μm): 1.43 μm
  D (0.9) (μm): 4.18 μm
[4]; in HFA 134
  Calculated RPL554 solubilised (%): 5.56%
  Calculated Solubilised RPL554 μg per 50 μL actuation: 9.03 µg
[4]; in HFA 134, BLQ = below limit of quantitation (0.06 μg/mL)
  Solubility RPL554: 126.81 µg/g
[4]; in HFA 134, BLQ = below limit of quantitation (0.06 μg/mL), listed as ethanesulfonate
  Solubility RPL554 (μg/g): quantifiable levels of solubility
[4]; in HFA 134 with Ethanol/Tween
  Estimated RPL554 solubilised (%): 10.96%
  Estimated Solubilised RPL554 μg per 50 μL actuation: 17.81 µg
  Solubility RPL554: 266.59 µg/g
[4]; in HFA 227
  Calculated RPL554 solubilised (%): BLQ
  Calculated Solubilised RPL554 μg per 50 μL actuation: BLQ
  Solubility RPL554 (μg/g): BLQ
[5]
  Measured Blend Content (% Theoretical): 98.79 % Theoretical
  **Adjusted RPL554 Content per capsule: 160.55 µg
[6]
  †Measured Mass of 1% w/w Blend Delivered per capsule: 20.18 mg
  ††RPL554 Emitted (μg) per capsule (B): 111.09 µg
  Calculated RPL554 Content (μg) per capsule (A): 162.00 µg
[7]; listed as Ethane sulfonic
  pH of aqueous suspension/solution: 3.04

## COc1cc2c(cc1OC)-c1c/c(=N\c3c(C)cc(C)cc3C)n(CCNC(N)=O)c(=O)n1CC2 [Hydrobromide, RPL554 hydrobromide]
[1]; hydrobromide
  Solubility as RPL554 (mg/ml) in 0.7 w/w % Saline: 0.95 mg/mL
  Solubility as RPL554 (mg/ml) in 0.9 w/w % Saline: 0.82 mg/mL
  Solubility as RPL554 (mg/ml) in 1.1 w/w % Saline: 0.66 mg/mL
  Solubility as RPL554 (mg/ml) in Water: 3.43 mg/mL
[2]; [8]
  Mass of salt (μg) dissolved after 2 hours, Average: 35.3 µg
  Mass of salt (μg) dissolved after 2 hours, Test 1: 30.4 µg
  Mass of salt (μg) dissolved after 2 hours, Test 2: 40.1 µg
[3]; hydrobromide
  D (0.1) (μm): 0.64 μm
  D (0.5) (μm): 1.52 μm
  D (0.9) (μm): 3.23 μm
[4]; in HFA 134, BLQ = below limit of quantitation (0.06 μg/mL), hydrobromide
  Solubility RPL554 (μg/g): BLQ
[4]; in HFA 134, hydrobromide
  Calculated RPL554 solubilised (%): BLQ
  Calculated Solubilised RPL554 μg per 50 μL actuation: BLQ
[4]; [9]
  Estimated RPL554 solubilised (%): 3.74%
  Estimated Solubilised RPL554 μg per 50 μL actuation: 6.40 µg
  Solubility RPL554: 96.27 µg/g
[5]; hydrobromide
  Measured Blend Content (% Theoretical): 83.37 % Theoretical
  **Adjusted RPL554 Content per capsule: 142.58 µg
[6]; hydrobromide
  †Measured Mass of 1% w/w Blend Delivered per capsule: 19.96 mg
  ††RPL554 Emitted (μg) per capsule (B): 104.28 µg
  Calculated RPL554 Content (μg) per capsule (A): 142.29 µg
[7]; listed as HBr, hydrobromide
  pH of aqueous suspension/solution: 3.20
